# Test results from the supplement of paper PMC13207355.
# What was measured:
# Details in all cases: exposure time: 72 h
# E13 [1] = patient-derived glioblastoma stem cells of classical subtype; assay: surviving fraction (nuclei count normalised to DMSO); higher = more cells surviving (less toxic)
# E21 [2] = patient-derived glioblastoma stem cells of mesenchymal subtype; assay: as above
# E28 [3] = patient-derived glioblastoma stem cells of classical subtype; assay: as above
# E31 [4] = patient-derived glioblastoma stem cells of proneural subtype; assay: as above
# E34 [5] = patient-derived glioblastoma stem cells of proneural subtype; assay: as above
# E57 [6] = patient-derived glioblastoma stem cells of mesenchymal subtype; assay: as above
# FT3469 [7] = normal neural stem cell line; assay: as above
# E13 [8] = assay: phenotypic distance (Euclidean, principal components) from DMSO controls (arbitrary units); higher = stronger morphological change
# E21 [9] = assay: as above
# E28 [10] = assay: as above
# E31 [11] = assay: as above
# E34 [12] = assay: as above
# E57 [13] = assay: as above
# FT3469 [14] = assay: as above
# 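Throughout, for phenotypic distance (Euclidean, principal components) from DMSO controls: cell Painting imaging in 384-well plates, CellProfiler features reduced to at least 20 principal components, Euclidean distance versus same-plate DMSO vehicle wells (0.1% v/v), median over six images per well.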
# 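Throughout, for surviving fraction (nuclei count normalised to DMSO): nuclei counted by high-content imaging of Hoechst-stained cells in laminin-coated 384-well plates, relative to 0.1% DMSO vehicle wells, with staurosporine as cell-death control.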
compound,measurement,setting,value
CCc1c2c(nc3ccc(OC(=O)N4CCC(N5CCCCC5)CC4)cc13)-c1cc3c(c(=O)n1C2)COC(=O)[C@]3(O)CC [Irinotecan],surviving fraction,E13 [1]; 4.1 nM,0.966
same,surviving fraction,E13 [1]; 12.3 nM,1.03
same,surviving fraction,E13 [1]; 37 nM,1
same,surviving fraction,E13 [1]; 111.1 nM,0.975
same,surviving fraction,E13 [1]; 333.3 nM,0.974
same,surviving fraction,E13 [1]; 1000 nM,0.784
same,surviving fraction,E13 [1]; 3000 nM,0.418
same,surviving fraction,E21 [2]; 4.1 nM,1.03
same,surviving fraction,E21 [2]; 12.3 nM,1.08
same,surviving fraction,E21 [2]; 37 nM,0.918
same,surviving fraction,E21 [2]; 111.1 nM,1.03
same,surviving fraction,E21 [2]; 333.3 nM,0.883
same,surviving fraction,E21 [2]; 1000 nM,0.589
same,surviving fraction,E21 [2]; 3000 nM,0.124
same,surviving fraction,E28 [3]; 4.1 nM,1.21
same,surviving fraction,E28 [3]; 12.3 nM,1.07
same,surviving fraction,E28 [3]; 37 nM,1.07
same,surviving fraction,E28 [3]; 111.1 nM,0.969
same,surviving fraction,E28 [3]; 333.3 nM,0.765
same,surviving fraction,E28 [3]; 1000 nM,0.541
same,surviving fraction,E28 [3]; 3000 nM,0.302
same,surviving fraction,E31 [4]; 4.1 nM,0.946
same,surviving fraction,E31 [4]; 12.3 nM,1.1
same,surviving fraction,E31 [4]; 37 nM,0.899
same,surviving fraction,E31 [4]; 111.1 nM,0.922
same,surviving fraction,E31 [4]; 333.3 nM,0.946
same,surviving fraction,E31 [4]; 1000 nM,0.579
same,surviving fraction,E31 [4]; 3000 nM,0.144
same,surviving fraction,E34 [5]; 4.1 nM,1.01
same,surviving fraction,E34 [5]; 12.3 nM,0.922
same,surviving fraction,E34 [5]; 37 nM,0.796
same,surviving fraction,E34 [5]; 111.1 nM,0.981
same,surviving fraction,E34 [5]; 333.3 nM,0.942
same,surviving fraction,E34 [5]; 1000 nM,0.675
same,surviving fraction,E34 [5]; 3000 nM,0.542
same,surviving fraction,E57 [6]; 4.1 nM,1.08
same,surviving fraction,E57 [6]; 12.3 nM,1.02
same,surviving fraction,E57 [6]; 37 nM,0.935
same,surviving fraction,E57 [6]; 111.1 nM,0.931
same,surviving fraction,E57 [6]; 333.3 nM,1.01
same,surviving fraction,E57 [6]; 1000 nM,0.658
same,surviving fraction,E57 [6]; 3000 nM,0.189
same,surviving fraction,FT3469 [7]; 4.1 nM,1.03
same,surviving fraction,FT3469 [7]; 12.3 nM,0.94
same,surviving fraction,FT3469 [7]; 37 nM,0.96
same,surviving fraction,FT3469 [7]; 111.1 nM,0.904
same,surviving fraction,FT3469 [7]; 333.3 nM,0.739
same,surviving fraction,FT3469 [7]; 1000 nM,0.748
same,surviving fraction,FT3469 [7]; 3000 nM,0.648
same,phenotypic distance,E13 [8]; 4.1 nM,0.394
same,phenotypic distance,E13 [8]; 12.3 nM,1.01
same,phenotypic distance,E13 [8]; 37 nM,0.761
same,phenotypic distance,E13 [8]; 111.1 nM,0.76
same,phenotypic distance,E13 [8]; 333.3 nM,1.35
same,phenotypic distance,E13 [8]; 1000 nM,2.55
same,phenotypic distance,E13 [8]; 3000 nM,5.65
same,phenotypic distance,E21 [9]; 4.1 nM,0.618
same,phenotypic distance,E21 [9]; 12.3 nM,1.21
same,phenotypic distance,E21 [9]; 37 nM,0.691
same,phenotypic distance,E21 [9]; 111.1 nM,1.31
same,phenotypic distance,E21 [9]; 333.3 nM,1.88
same,phenotypic distance,E21 [9]; 1000 nM,3.97
same,phenotypic distance,E21 [9]; 3000 nM,5.51
same,phenotypic distance,E28 [10]; 4.1 nM,0.5
same,phenotypic distance,E28 [10]; 12.3 nM,0.951
same,phenotypic distance,E28 [10]; 37 nM,0.608
same,phenotypic distance,E28 [10]; 111.1 nM,0.966
same,phenotypic distance,E28 [10]; 333.3 nM,1.51
same,phenotypic distance,E28 [10]; 1000 nM,3.61
same,phenotypic distance,E28 [10]; 3000 nM,4.49
same,phenotypic distance,E31 [11]; 4.1 nM,0.6
same,phenotypic distance,E31 [11]; 12.3 nM,0.75
same,phenotypic distance,E31 [11]; 37 nM,0.721
same,phenotypic distance,E31 [11]; 111.1 nM,0.569
same,phenotypic distance,E31 [11]; 333.3 nM,1.07
same,phenotypic distance,E31 [11]; 1000 nM,1.39
same,phenotypic distance,E31 [11]; 3000 nM,3.35
same,phenotypic distance,E34 [12]; 4.1 nM,0.814
same,phenotypic distance,E34 [12]; 12.3 nM,0.597
same,phenotypic distance,E34 [12]; 37 nM,0.83
same,phenotypic distance,E34 [12]; 111.1 nM,0.866
same,phenotypic distance,E34 [12]; 333.3 nM,2.22
same,phenotypic distance,E34 [12]; 1000 nM,4.25
same,phenotypic distance,E34 [12]; 3000 nM,3.72
same,phenotypic distance,E57 [13]; 4.1 nM,0.685
same,phenotypic distance,E57 [13]; 12.3 nM,0.929
same,phenotypic distance,E57 [13]; 37 nM,0.554
same,phenotypic distance,E57 [13]; 111.1 nM,0.781
same,phenotypic distance,E57 [13]; 333.3 nM,1.52
same,phenotypic distance,E57 [13]; 1000 nM,3.59
same,phenotypic distance,E57 [13]; 3000 nM,7.66
same,phenotypic distance,FT3469 [14]; 4.1 nM,0.701
same,phenotypic distance,FT3469 [14]; 12.3 nM,1.1
same,phenotypic distance,FT3469 [14]; 37 nM,1.06
same,phenotypic distance,FT3469 [14]; 111.1 nM,1.22
same,phenotypic distance,FT3469 [14]; 333.3 nM,1.84
same,phenotypic distance,FT3469 [14]; 1000 nM,2.27
same,phenotypic distance,FT3469 [14]; 3000 nM,2.46
